Results published in patent publication US20260042731A1, “(2,4-DICHLOROPHENOXY)ACETIC ACID ANALOGS” (CORTEVA AGRISCIENCE LLC, priority 2022, published 2026).
Read-outs that look alike come from different tables or passages of the source.

What was measured:
[1] = Volatility of compounds measured by thermogravimetric analysis (TGA); format: physicochemical
[2] = tested on: weeds (ABUTH, AMATA, AMBEL, CHEAL, ERICA); assay: Postemergence herbicide evaluation, overall average % weed control across ABUTH, AMATA, AMBEL, CHEAL, ERICA; format: in vivo; conditions: post-emergence, read-out: Overall Ave % Weed Control
[3] = tested on: Amaranthus rudis (AMATA), tall water hemp; assay: Postemergence herbicide evaluation, growth of Amaranthus rudis (AMATA); format: in vivo; conditions: Amaranthus tuberculatus, post-emergence, read-out: Ave. AMATA
[4] = tested on: Abutilon theophrasti (ABUTH), velvetleaf; assay: Postemergence herbicide evaluation, growth of Abutilon theophrasti (ABUTH); format: in vivo; conditions: Abutilon theophrasti, post-emergence, read-out: AVE. ABUTH
[5] = tested on: Ambrosia artemisiifolia (AMBEL), common ragweed; assay: Postemergence herbicide evaluation, growth of Ambrosia artemisiifolia (AMBEL); format: in vivo; conditions: Ambrosia artemisiifolia, post-emergence, read-out: AVE. AMBEL
[6] = tested on: glyphosate resistant Conyza canadensis (L.) (ERICA), horseweed; assay: Postemergence herbicide evaluation, growth of Conyza canadensis (ERICA); format: in vivo; conditions: Erigeron canadensis, post-emergence, read-out: Ave. ERICA
[7] = tested on: Chenopodium album (CHEAL), common lambsquarters; assay: Postemergence herbicide evaluation, growth of Chenopodium album (CHEAL); format: in vivo; conditions: Chenopodium album, post-emergence, read-out: Ave. CHEAL
[8] = 168 h, 280 g ae/ha, 7 DAA, average over the five weeds
[9] = 168 h, 560 g ae/ha, 7 DAA, average over the five weeds
[10] = 336 h, 280 g ae/ha, 14 DAA, average over the five weeds
[11] = 336 h, 560 g ae/ha, 14 DAA, average over the five weeds
[12] = 504 h, 280 g ae/ha, 21 DAA, average over the five weeds
[13] = 504 h, 560 g ae/ha, 21 DAA, average over the five weeds
[14] = 168 h, 280 g ae/ha, 7 DAA, percent reduction in plant size relative to untreated control
[15] = 168 h, 560 g ae/ha, 7 DAA, percent reduction in plant size relative to untreated control
[16] = 336 h, 280 g ae/ha, 14 DAA, percent reduction in plant size relative to untreated control
[17] = 336 h, 560 g ae/ha, 14 DAA, percent reduction in plant size relative to untreated control
[18] = 504 h, 280 g ae/ha, 21 DAA, percent reduction in plant size relative to untreated control
[19] = 504 h, 560 g ae/ha, 21 DAA, percent reduction in plant size relative to untreated control

With O=C(COc1ccc(Cl)cc1Cl)n1cnc2ccccc21 [Compound D4, 1-(1H-Benzo[d]imidazol-1-yl)-2-(2,4-dichlorophenoxy)ethanone] the “TGA Data (rate of weight loss, volatility)” value [1] was 0.2 µg/min, the pest or weed control at 280 g/ha [2, 8] was 72% and the pest or weed control at 560 g/ha [2, 9] was 76%. The pest or weed control at 280 g/ha [2, 10] was 83%, the pest or weed control at 560 g/ha [2, 11] was 93% and the pest or weed control at 280 g/ha [2, 12] was 86%. It also gave a pest or weed control at 560 g/ha [2, 13] of 97%, a pest or weed control at 280 g/ha ([3]; 168 h) of 75% and a pest or weed control at 560 g/ha ([3]; 168 h) of 83%. The pest or weed control at 280 g/ha ([3]; 336 h) was 75%, the pest or weed control at 560 g/ha ([3]; 336 h) was 97% and the pest or weed control at 280 g/ha ([3]; 504 h) was 75%. For the same compound, the pest or weed control at 560 g/ha ([3]; 504 h) was 95%, the pest or weed control at 280 g/ha ([4]; 168 h) was 85% and the pest or weed control at 560 g/ha ([4]; 168 h) was 93%. It also gave a pest or weed control at 280 g/ha ([4]; 336 h) of 95%, a pest or weed control at 560 g/ha ([4]; 336 h) of 96% and a pest or weed control at 280 g/ha ([4]; 504 h) of 98%. It also gave a pest or weed control at 560 g/ha ([4]; 504 h) of 98%, a pest or weed control at 280 g/ha ([5]; 168 h) of 60% and a pest or weed control at 560 g/ha ([5]; 168 h) of 68%. The pest or weed control at 280 g/ha ([5]; 336 h) was 85%, the pest or weed control at 560 g/ha ([5]; 336 h) was 95% and the pest or weed control at 280 g/ha ([5]; 504 h) was 85%. The pest or weed control at 560 g/ha ([5]; 504 h) was 98%, the pest or weed control at 280 g/ha ([6]; 168 h) was 70% and the pest or weed control at 560 g/ha ([6]; 168 h) was 70%. For the same compound, the pest or weed control at 280 g/ha ([6]; 336 h) was 83%, the pest or weed control at 560 g/ha ([6]; 336 h) was 94% and the pest or weed control at 280 g/ha ([6]; 504 h) was 88%. It also gave a pest or weed control at 560 g/ha ([6]; 504 h) of 99%, a pest or weed control at 280 g/ha ([7]; 168 h) of 68% and a pest or weed control at 560 g/ha ([7]; 168 h) of 65%. The pest or weed control at 280 g/ha ([7]; 336 h) was 75%, the pest or weed control at 560 g/ha ([7]; 336 h) was 85% and the pest or weed control at 280 g/ha ([7]; 504 h) was 83%. For the same compound, the pest or weed control at 560 g/ha ([7]; 504 h) was 93%.

With C/C(C/C(C)=N/OC(=O)COc1ccc(Cl)cc1Cl)=N\OC(=O)COc1ccc(Cl)cc1Cl [Compound B6, (2,4)-Pentane-2,4-dione O,O-di(2-(2,4-dichlorophenoxy)acetyl) dioxime] the “TGA Data (rate of weight loss, volatility)” value [1] was 3.7 µg/min, the pest or weed control at 280 g/ha [2, 8] was 72% and the pest or weed control at 560 g/ha [2, 9] was 74%. For the same compound, the pest or weed control at 280 g/ha [2, 10] was 88%, the pest or weed control at 560 g/ha [2, 11] was 85% and the pest or weed control at 280 g/ha [2, 12] was 91%. For the same compound, the pest or weed control at 560 g/ha [2, 13] was 89%, the pest or weed control at 280 g/ha [3, 14] was 75% and the pest or weed control at 560 g/ha [3, 15] was 73%. The pest or weed control at 280 g/ha [3, 16] was 75%, the pest or weed control at 560 g/ha [3, 17] was 80% and the pest or weed control at 280 g/ha [3, 18] was 75%. It also gave a pest or weed control at 560 g/ha [3, 19] of 83%, a pest or weed control at 280 g/ha [4, 14] of 78% and a pest or weed control at 560 g/ha [4, 15] of 83%. It also gave a pest or weed control at 280 g/ha [4, 16] of 90%, a pest or weed control at 560 g/ha [4, 17] of 86% and a pest or weed control at 280 g/ha [4, 18] of 92%. It also gave a pest or weed control at 560 g/ha [4, 19] of 89%, a pest or weed control at 280 g/ha [5, 14] of 68% and a pest or weed control at 560 g/ha [5, 15] of 70%. For the same compound, the pest or weed control at 280 g/ha [5, 16] was 93%, the pest or weed control at 560 g/ha [5, 17] was 93% and the pest or weed control at 280 g/ha [5, 18] was 96%. It also gave a pest or weed control at 560 g/ha [5, 19] of 100%, a pest or weed control at 280 g/ha [6, 14] of 68% and a pest or weed control at 560 g/ha [6, 15] of 75%. It also gave a pest or weed control at 280 g/ha [6, 16] of 93%, a pest or weed control at 560 g/ha [6, 17] of 88% and a pest or weed control at 280 g/ha [6, 18] of 98%. For the same compound, the pest or weed control at 560 g/ha [6, 19] was 99%, the pest or weed control at 280 g/ha [7, 14] was 70% and the pest or weed control at 560 g/ha [7, 15] was 70%. The pest or weed control at 280 g/ha [7, 16] was 88%, the pest or weed control at 560 g/ha [7, 17] was 78% and the pest or weed control at 280 g/ha [7, 18] was 93%. For the same compound, the pest or weed control at 560 g/ha [7, 19] was 75%.

For O=C(COc1ccc(Cl)cc1Cl)OCc1ccccc1 [Compound E4, Benzyl 2-(2,4-dichlorophenoxy)acetate], the “TGA Data (rate of weight loss, volatility)” value [1] was 0.4 µg/min, the pest or weed control at 280 g/ha ([2]; 168 h) was 74% and the pest or weed control at 560 g/ha ([2]; 168 h) was 77%. It also gave a pest or weed control at 280 g/ha ([2]; 336 h) of 84%, a pest or weed control at 560 g/ha ([2]; 336 h) of 90% and a pest or weed control at 280 g/ha ([2]; 504 h) of 90%. It also gave a pest or weed control at 560 g/ha ([2]; 504 h) of 92%, a pest or weed control at 280 g/ha ([3]; 168 h) of 68% and a pest or weed control at 560 g/ha ([3]; 168 h) of 78%. It also gave a pest or weed control at 280 g/ha ([3]; 336 h) of 65%, a pest or weed control at 560 g/ha ([3]; 336 h) of 93% and a pest or weed control at 280 g/ha ([3]; 504 h) of 70%. The pest or weed control at 560 g/ha ([3]; 504 h) was 91%, the pest or weed control at 280 g/ha ([4]; 168 h) was 90% and the pest or weed control at 560 g/ha ([4]; 168 h) was 90%. It also gave a pest or weed control at 280 g/ha ([4]; 336 h) of 97%, a pest or weed control at 560 g/ha ([4]; 336 h) of 97% and a pest or weed control at 280 g/ha ([4]; 504 h) of 99%. It also gave a pest or weed control at 560 g/ha ([4]; 504 h) of 98%, a pest or weed control at 280 g/ha ([5]; 168 h) of 68% and a pest or weed control at 560 g/ha ([5]; 168 h) of 73%. It also gave a pest or weed control at 280 g/ha ([5]; 336 h) of 89%, a pest or weed control at 560 g/ha ([5]; 336 h) of 97% and a pest or weed control at 280 g/ha ([5]; 504 h) of 99%. The pest or weed control at 560 g/ha ([5]; 504 h) was 99%, the pest or weed control at 280 g/ha ([6]; 168 h) was 70% and the pest or weed control at 560 g/ha ([6]; 168 h) was 75%. For the same compound, the pest or weed control at 280 g/ha ([6]; 336 h) was 88%, the pest or weed control at 560 g/ha ([6]; 336 h) was 93% and the pest or weed control at 280 g/ha ([6]; 504 h) was 95%. It also gave a pest or weed control at 560 g/ha ([6]; 504 h) of 99%, a pest or weed control at 280 g/ha ([7]; 168 h) of 73% and a pest or weed control at 560 g/ha ([7]; 168 h) of 70%. It also gave a pest or weed control at 280 g/ha ([7]; 336 h) of 83%, a pest or weed control at 560 g/ha ([7]; 336 h) of 73% and a pest or weed control at 280 g/ha ([7]; 504 h) of 88%. The pest or weed control at 560 g/ha ([7]; 504 h) was 75%.
